From publication PMC9321647, “Curcumin-Based β-Diketo Ligands for Ga^3+: Thermodynamic Investigation of Potential Metal-Based Drugs” (Pharmaceuticals, 2022)
Where two headings read alike, the source gives them in different places.

Key:
[1] = Kinetic stability of ligands in simulated physiological conditions (UV-Vis); format: physicochemical
Description: The chemical stability of ligands and metal complexes at the M:L 1:L molar ratio at 37 °C in darkness was evaluated by UV−Vis spectroscopy as a change in absorbance in the 250−600 nm range over an overall period of 8 h. Solutions (5.0 × 10^–5 mol L^–1) of the ligands were prepared in 0.1 mol L^–1 phosphate-buffered solution (PBS) at pH 7.4. Spectra were recorded every 30 min. All profiles were linearized as the hyperbolic function defined by Equation (2), which represents an empirical model that describes drug decomposition or release well [42]:(2) t/f%=at+b where f% is the percentage of the residual compound at time t (min) referred to the starting concentration at time zero determined by reading the absorbance at λmax.

[2] = Keto-enol/diketo tautomer amounts by 1H NMR; format: physicochemical; conditions: molar percentage, MeOD-d4, 298 K
Description: NMR spectra were recorded by means of a Bruker Biospin FT-NMR AVANCE III HD (600 MHz) spectrometer equipped with a CryoProbe BBO H&F 5 mm in inverse detection. The nominal frequencies were 150.90 MHz for ^13C and 600.13 MHz for ^1H, respectively. For each sample, 1–5 mg were weighed and diluted up to 0.6 mL with a proper solvent in a 5 mm NMR tube; 90° pulse was calibrated for each sample, and standard NMR parameters were used to achieve quantitative results (relaxation delay, 10 s). Proton and carbon chemical shifts are given in parts per million (ppm) versus external TMS and were determined by reference to the solvent residual signals. Typical 2D homo- and heteronuclear techniques were used for assignment, i.e., ^1H,^1H COSY, ^1H,^13C HSQC, ^1H,^13C HMBC. NMR investigations of Ga^3+:L systems were performed in MeOD-d4 by adding small amounts of a Ga(NO3)3 solution (10 μL each) to 1 mM ligand solution (0.6 mL) until reaching the desired metal-to-ligand molar ratio. The complexation reaction is fast, and spectra were registered few minutes after the addition. Two-dimensional ^1H,^13C heteronuclear multiple bond correlation (HMBC) experiments (hmbcgpndqf in Bruker library) were performed via heteronuclear zero and double quantum coherence, optimized on long-range couplings (^3/4JHC = 8 Hz), with no decoupling during acquisition, and gradient pulses were used for selection. The relative percentages of the isomeric forms were estimated on the basis of the NMR data. Particularly, ^1H NMR spectra were acquired in quantitative conditions being D1 (relaxation delay) at least five times the T1 of the slowest relaxing signal of interest. The raw data were Fourier-transformed, and then the processing was performed by zero filling (SI = TD), line broadening (lb 0.3 Hz), accurate phasing and correcting the baseline. The most isolated signals were selected for integration, i.e., the vinyl protons (H-3 and H-4), and an average of the integrated area (A) of H-3 and H-4 was used for relative quantitation, according to the following equation: %Tautomeri=(A(H−3)i+(A(H−4)i)/2/∑i(A(H−3)i+(A(H−4)i)/2×100

[3] = Spectrophotometric pH titrations of ligands (protonation constants, pKa); format: physicochemical; conditions: 298 K; for pKa: aqueous solution (methanol stock diluted in water), calculated from logβ values, * = keto–enol moiety dissociation
Description: (§1) UV–visible spectra were recorded with a JASCO V-570 UV/Vis/NIR spectrophotometer at 298 K in the 250–600 nm spectral range employing quartz cells (1 cm optical path). To perform spectrophotometric titrations, ligands (denoted generally as L in the following) were dissolved in methanol to give a mother solution (2.50 mM), that was then diluted in water in order to obtain a final concentration of 50 μM. The metal/ligand (M:L) solutions were obtained by adding appropriate quantities of Ga(NO3)3 as methanol solutions (5–10 mM) in order to obtain the metal-to-ligand 1:1 molar ratio (L = 50 μM and V = 25 mL). For both L and M:L systems, pH (initial value of about 5) was varied by adding small amounts (<1 μL) of concentrated NaOH (4 M) up to ca. pH 11, thus to consider volume variations negligible. To evaluate the complexation ratio, constant additions of the M solution (10 µL each time, M = 10^–2 M) were dropped into the ligand solution (V = 25 mL, L = 50 μM) using a micropipette in order to reach different M:L molar ratios. A constant ionic strength (NaNO3, 0.1 M) was maintained in all experiments. Spectrophotometric investigations of iron(III) systems were performed in the same conditions; the Fe^3+ solution was freshly prepared in methanol starting from Fe(NO3)3·9H2O. The overall protonation constants (logβqr) and the overall stability constants of metal complexes (logβpqr) were evaluated from spectrophotometric data. The stability constants (βpqr), defined by the following equations:(3) pM^m++qL^l^−+rH^+⇌MpLqHr(mp−lq+r) (4) βpqr=[MpLqHr(mp−lq+r)]/[M^m+]^p·[L^l−]^q·[H^+]^r where L is the ligand in the completely dissociated form and H is proton, were refined using least-squares calculation in HypSpec. The results of least-squares calculation include the standard deviations and correlation coefficients of the refined parameters. The quantities are obtained by performing error propagation calculation from the experimental errors onto the parameters. The stability constant refinement furnishes least-squares estimates of the standard deviation, σ, of the stability constant β. The error on logβ is calculated as follows: σ(logβ) = [log(β + σ) − log(β − σ)]/2.

[4] = Spectrophotometric pH-metric titrations of Ga^3+:ligand systems (stability constants, pGa, speciation); format: physicochemical
Description: as §1
Hydroxide species, such as [Ga(OH)2]^+, were taken into account for calculations. The hydrolysis constants for Ga^3+ are as follows: logβ1,1,0 = −3.93; logβ2,1,0 = −7.73; logβ3,1,0 = −12.38; logβ4,1,0 = −15.96; logβ32,13,0 = −66.3; logβ3,1,0(s) = −3.54 [43]; pGa is defined as (−log[Ga^3+]free) and is calculated at specific conditions (Ga^3+total = 1 μM, Ltotal = 10 μM, pH 7.4, 25 °C). For the calculation of the iron(III) overall stability constants, the presence of [Fe(OH)]^2+, [Fe(OH)2]^+ and [Fe(OH)3] species was taken into account.

[5] = system: HCT116 colon carcinoma cells; assay: MTT cell viability assay; format: cell-based, Human; conditions: Homo sapiens, HCT-116, HCT116, 48 h of treatment, mean
Description: Human colorectal carcinoma HCT116 cells (#91091005, ECACC) were grown in an IMDM medium (Biowest) supplemented with 2 mM glutamine, 100 IU/mL penicillin, 100 μg/mL streptomycin and 10% FBS (Gibco). The cell lines were grown at 37 °C in a humidified incubator containing 5% CO2. The cells were verified to be mycoplasma-free and passaged < 3 months. The inhibition of cell proliferation was measured by colorimetric 3-(4,5-dimethylthiazol-2-yl)-2,5-diphenyltetrazolium bromide (MTT) assay. GI50 concentrations were determined using the CompuSyn software version 1.0 (ComboSyn, Inc., Paramus, NJ USA) (free download via www.combosyn.com, accessed on 30 May 2022), and statistical analyses were performed using the GraphPad PRISM software (version 6.01 for Windows, GraphPad Software, San Diego, California USA GraphPad Prism) using unpaired t-test. Data were considered to be statistically significant if p < 0.05 (*), p < 0.01 (**), p < 0.001(***) and p < 0.0001 (****).

[6] = cited from earlier work
transferrin = system: transferrin; set-up: method as in PMID 22800370; conditions: normal plasma bicarbonate concentrations; cited from earlier work
[7] = HypSpec, spectrophotometric data

## O=C(/C=C/c1ccc(O)cc1)C(CCCN1C(=O)c2ccccc2C1=O)C(=O)/C=C/c1ccc(O)cc1 [Compound 3]
[1]; PBS, pH 7.4, 37 °C in darkness, 4 h
  Stability: percentage of the residual ligand after 4 h: 47%
[1]; rank among the 7 ligands, 1 = most stable
  Stability ranking (residual ligand after 4 h): 6
[2]
  KK (%) amount of diketo form: 55%
[2]; for 2 includes KE form of the Z isomer (6%)
  KE (%) amount of keto–enol form: 45%
[3]; [7]
  logβ011 overall protonation constant: 10.88 (2)
  logβ012 overall protonation constant: 20.29 (2)
  logβ013 overall protonation constant: 28.84 (4)
[3]; read-out: pKa1
  pKa: 8.55
[3]; read-out: pKa2
  pKa: 9.41
[3]; read-out: pKa3
  pKa: 10.9
[4]; 298 K, HypSpec
  log β 112 overall stability constant (Ga^3+): 28.28 (3)
  log β 124 overall stability constant (Ga^3+): 54.63 (5)
[4]; 298 K, estimated from logβMLH
  logK11 apparent formation constant (Ga^3+, M:L 1:1): 7.99
  logK12 apparent formation constant (Ga^3+, M:L 1:2): 14.05
[4]; Ga^3+ complex species, pH 5.5
  Prevailing Species (pH 5.5): [Ga(H2L)2]^+
[4]; Ga^3+ complex species, pH 7.4, ** possible formation of gallium hydroxide species
  Prevailing Species (pH 7.4): [Ga(H2L)2]^+
[4]; [Ga^3+]total = 1 μM, [L]total = 10 μM, pH 7.4, 25 °C
  pGa (−log[Ga^3+]free): 20.8
[5]
  GI50: 6.21 µM

## CC(=O)N(O)CCCCCNC(=O)CCC(=O)N(O)CCCCCNC(=O)CCC(=O)N(O)CCCCCN [DFOB]
[6]
  pGa: 21.6

## [Fe+3] [Fe^3+]
transferrin
  log K1 binding constant to transferrin: 22.8
  log K2 binding constant to transferrin: 21.7

## [Ga+3] [Ga^3+]
transferrin
  log K1 binding constant to transferrin: 20.3
  log K2 binding constant to transferrin: 19.3

## O=C(O)CCP(=O)(O)CN1CCN(CP(=O)(O)CCC(=O)O)CCN(CP(=O)(O)CCC(=O)O)CC1 [PrP9]
[6]
  pGa: 23.1
